“And” between values parts separate entries of the source, which are not always exact repeats. Equal entries are not always repeated.
Experiments:
[1] = tested on: F98 glioma bearing rats; experiment: In vivo BNCT therapeutic experiment, neutron irradiation at KURRI; set-up: species or system rat
From the text: All animal experimental procedures were approved by the Animal Use Review Board and Ethical Committee of Osaka Medical College (No. 25092, 28 October 2015) and Kyoto University Research Reactor Institute (KURRI, No. 25030-13, 1 April 2015), and performed following the Guide for the Care and Use of Laboratory Animals. Eight-week-old, male Fischer 344 rats weighing between 200 and 250 g were used (Japan SLC, Inc. Shizuoka, Japan). Rats were anesthetized with an intraperitoneal (ip) injection of a mixture of medetomidine 0.15 mg, midazolam 2 mg, and butorphanol 2.5 mg/kg body weight (bw). The head of each rat was fixed with a stereotactic frame (Model 900; David Kopf Instruments, Tujunga, CA, USA). The scalp was incised at the midline and a small burr hole was drilled into the skull (1 mm posterior and 4 mm right-lateral to the bregma), using an electric drill. And then, F98 glioma cells were injected into the brain using a 25 µL Hamilton microsyringe with a 26-gauge needle (model 1700 RN, Hamilton Bonaduz AG, Bonaduz, Switzerland). The needle was inserted at a 5 mm depth from the skull and F98 cells were diluted in 10 µL of DMEM containing low-gelling temperature agarose at a concentration of either 10^3 for therapeutic experiments or 10^5 cells for biodistribution experiments. They were injected over 30 s using an automatic infuser pump. The needle entry hole was immediately sealed with bone wax and the incised scalp was closed with 3-0 silk sutures (Ethicon, North Ryde, NSW). […]
Therapeutic experiments for BNCT were performed 14 days after stereotactic implantation of 10^3 F98 glioma cells. […] The therapeutic effect of BNCT was evaluated by the survival time of the animals. […]
The means and standard deviations (SD) were computed for ^10B concentrations of F98 glioma cells and tissues of Fischer rats bearing intracerebral implants of the F98 glioma. […] Statistical differences between means were calculated using the Student’s unpaired t-test. In therapeutic experiments, the median survival time (MST) was calculated for each group using the Kaplan–Meier estimate. […]

[2] = tested on: F98 glioma bearing rats; experiment: Biodistribution in F98 glioma bearing rats (ICP-AES); assay type: in vivo, rat; settings: iv
From the text: All animal experimental procedures were approved by the Animal Use Review Board and Ethical Committee of Osaka Medical College (No. 25092, 28 October 2015) and Kyoto University Research Reactor Institute (KURRI, No. 25030-13, 1 April 2015), and performed following the Guide for the Care and Use of Laboratory Animals. Eight-week-old, male Fischer 344 rats weighing between 200 and 250 g were used (Japan SLC, Inc. Shizuoka, Japan). Rats were anesthetized with an intraperitoneal (ip) injection of a mixture of medetomidine 0.15 mg, midazolam 2 mg, and butorphanol 2.5 mg/kg body weight (bw). The head of each rat was fixed with a stereotactic frame (Model 900; David Kopf Instruments, Tujunga, CA, USA). The scalp was incised at the midline and a small burr hole was drilled into the skull (1 mm posterior and 4 mm right-lateral to the bregma), using an electric drill. And then, F98 glioma cells were injected into the brain using a 25 µL Hamilton microsyringe with a 26-gauge needle (model 1700 RN, Hamilton Bonaduz AG, Bonaduz, Switzerland). The needle was inserted at a 5 mm depth from the skull and F98 cells were diluted in 10 µL of DMEM containing low-gelling temperature agarose at a concentration of either 10^3 for therapeutic experiments or 10^5 cells for biodistribution experiments. They were injected over 30 s using an automatic infuser pump. The needle entry hole was immediately sealed with bone wax and the incised scalp was closed with 3-0 silk sutures (Ethicon, North Ryde, NSW). After surgery, all animals were given atipamezole hydrochloride (0.15 mg/kg bw, ip).
Biodistribution studies were performed in Fischer rats bearing intracerebral implants of F98 rat glioma cells. 10–13 days after tumor implantation of 10^5 F98 glioma cells, when signs of a progressively growing tumor were evident (weight loss, lethargy, hunching, and ataxia), biodistribution studies were initiated at which time the animals had tumors weighing 90–180 mg. […] To compare its biodistribution with that of BPA or BSH, another group of rats received an iv injection of BPA at a concentration of 10 mg ^10B/kg bw or BSH at a concentration of 30 mg ^10B/kg bw. Biodistribution was determined 1 and 3 h after termination of iv injection. Animals were euthanized by an overdose of sevoflurane following which tumors and normal tissues, consisting of ipsilateral brain, contralateral brain, blood, heart, lung, liver, spleen, kidney, skin, and muscle, were removed and weighed for ^10B determination by ICP-AES.

[3] = 10 mg 10B/kg iv, BNCT 1 h after administration

With “S-(2-(5-hydroxy-4-oxo-4H-pyran-2-yl) methyl) Thioundecahydro-Closo- Dodecaborate (2-) Disodium Salt [KA-BSH]” the “Survival Time, Median (MST)” value [1, 3] was 36.0 days, the “Survival Time, Range” value [1, 3] was 32 – 38 and the “%ILS Median (percent increase life span)” value ([1]; relative to median survival time of untreated controls) was 22.0%. For the same substance, the “10B concentration, Blood” value ([2]; 10 mg 10B/kg, 1 h) was 4.71 µg 10B/g, the “10B concentration, Contralateral brain” value ([2]; 10 mg 10B/kg, 1 h) was 0.24 µg 10B/g and the “10B concentration, Heart” value ([2]; 10 mg 10B/kg, 1 h) was 1.18 µg 10B/g. For the same substance, the “10B concentration, Ipsilateral brain” value ([2]; 10 mg 10B/kg, 1 h) was 0.29 µg 10B/g, the “10B concentration, Liver” value ([2]; 10 mg 10B/kg, 1 h) was 5.15 µg 10B/g and the “10B concentration, Lung” value ([2]; 10 mg 10B/kg, 1 h) was 4.31 µg 10B/g. For the same substance, the “10B concentration, Muscle” value ([2]; 10 mg 10B/kg, 1 h) was 0.63 µg 10B/g, the “10B concentration, Skin” value ([2]; 10 mg 10B/kg, 1 h) was 1.79 µg 10B/g and the “10B concentration, Spleen” value ([2]; 10 mg 10B/kg, 1 h) was 14.34 µg 10B/g. The “10B concentration, Tumor” value ([2]; 10 mg 10B/kg, 1 h) was 1.42 µg 10B/g and 1.42 ± 0.28 µg 10B/g, the “T/Bl (tumor to blood ratio)” value ([2]; 10 mg 10B/kg, 1 h) was 0.31 and the “T/Br (tumor to normal contralateral brain ratio)” value ([2]; 10 mg 10B/kg, 1 h) was 5.99. The “10B concentration, Blood” value ([2]; 10 mg 10B/kg, 3 h) was 1.26 µg 10B/g, the “10B concentration, Contralateral brain” value ([2]; 10 mg 10B/kg, 3 h) was 0.09 µg 10B/g and the “10B concentration, Heart” value ([2]; 10 mg 10B/kg, 3 h) was 0.29 µg 10B/g. The “10B concentration, Ipsilateral brain” value ([2]; 10 mg 10B/kg, 3 h) was 0.10 µg 10B/g, the “10B concentration, Liver” value ([2]; 10 mg 10B/kg, 3 h) was 4.13 µg 10B/g and the “10B concentration, Lung” value ([2]; 10 mg 10B/kg, 3 h) was 0.74 µg 10B/g. For the same substance, the “10B concentration, Muscle” value ([2]; 10 mg 10B/kg, 3 h) was 0.19 µg 10B/g, the “10B concentration, Skin” value ([2]; 10 mg 10B/kg, 3 h) was 0.45 µg 10B/g and the “10B concentration, Spleen” value ([2]; 10 mg 10B/kg, 3 h) was 16.07 µg 10B/g. The “10B concentration, Tumor” value ([2]; 10 mg 10B/kg, 3 h) was 0.85 µg 10B/g, the “T/Bl (tumor to blood ratio)” value ([2]; 10 mg 10B/kg, 3 h) was 0.69 and the “T/Br (tumor to normal contralateral brain ratio)” value ([2]; 10 mg 10B/kg, 3 h) was 9.52. For the same substance, the “10B concentration, Blood” value ([2]; 20 mg 10B/kg, 1 h) was 8.76 µg 10B/g, the “10B concentration, Contralateral brain” value ([2]; 20 mg 10B/kg, 1 h) was 0.24 µg 10B/g and the “10B concentration, Heart” value ([2]; 20 mg 10B/kg, 1 h) was 2.10 µg 10B/g. The “10B concentration, Ipsilateral brain” value ([2]; 20 mg 10B/kg, 1 h) was 0.31 µg 10B/g, the “10B concentration, Liver” value ([2]; 20 mg 10B/kg, 1 h) was 10.25 µg 10B/g and the “10B concentration, Lung” value ([2]; 20 mg 10B/kg, 1 h) was 6.11 µg 10B/g. The “10B concentration, Muscle” value ([2]; 20 mg 10B/kg, 1 h) was 2.35 µg 10B/g, the “10B concentration, Skin” value ([2]; 20 mg 10B/kg, 1 h) was 3.56 µg 10B/g and the “10B concentration, Spleen” value ([2]; 20 mg 10B/kg, 1 h) was 10.30 µg 10B/g. For the same substance, the “10B concentration, Tumor” value ([2]; 20 mg 10B/kg, 1 h) was 2.96 µg 10B/g, the “T/Bl (tumor to blood ratio)” value ([2]; 20 mg 10B/kg, 1 h) was 0.34 and the “T/Br (tumor to normal contralateral brain ratio)” value ([2]; 20 mg 10B/kg, 1 h) was 13.21. For the same substance, the “10B concentration, Blood” value ([2]; 20 mg 10B/kg, 3 h) was 1.54 µg 10B/g, the “10B concentration, Contralateral brain” value ([2]; 20 mg 10B/kg, 3 h) was 0.09 µg 10B/g and the “10B concentration, Heart” value ([2]; 20 mg 10B/kg, 3 h) was 0.39 µg 10B/g. For the same substance, the “10B concentration, Ipsilateral brain” value ([2]; 20 mg 10B/kg, 3 h) was 0.14 µg 10B/g, the “10B concentration, Liver” value ([2]; 20 mg 10B/kg, 3 h) was 5.40 µg 10B/g and the “10B concentration, Lung” value ([2]; 20 mg 10B/kg, 3 h) was 1.37 µg 10B/g. The “10B concentration, Muscle” value ([2]; 20 mg 10B/kg, 3 h) was 0.24 µg 10B/g, the “10B concentration, Skin” value ([2]; 20 mg 10B/kg, 3 h) was 0.57 µg 10B/g and the “10B concentration, Spleen” value ([2]; 20 mg 10B/kg, 3 h) was 8.44 µg 10B/g. For the same substance, the “10B concentration, Tumor” value ([2]; 20 mg 10B/kg, 3 h) was 1.47 µg 10B/g, the “T/Bl (tumor to blood ratio)” value ([2]; 20 mg 10B/kg, 3 h) was 1.12 and the “T/Br (tumor to normal contralateral brain ratio)” value ([2]; 20 mg 10B/kg, 3 h) was 21.07. For the same substance, the “10B concentration in blood” value ([2]; 30 mg 10B/kg, 1 h) was 14.21 ± 3.17 µg/mL, the “10B concentration, Blood” value ([2]; 30 mg 10B/kg, 1 h) was 14.21 µg 10B/g and the “10B concentration, Contralateral brain” value ([2]; 30 mg 10B/kg, 1 h) was 0.45 µg 10B/g. The “10B concentration, Heart” value ([2]; 30 mg 10B/kg, 1 h) was 3.45 µg 10B/g, the “10B concentration, Ipsilateral brain” value ([2]; 30 mg 10B/kg, 1 h) was 0.63 µg 10B/g and the “10B concentration, Liver” value ([2]; 30 mg 10B/kg, 1 h) was 10.33 ± 2.61 µg 10B/g and 10.33 µg 10B/g. The “10B concentration, Lung” value ([2]; 30 mg 10B/kg, 1 h) was 9.27 µg 10B/g, the “10B concentration, Muscle” value ([2]; 30 mg 10B/kg, 1 h) was 2.26 µg 10B/g and the “10B concentration, Skin” value ([2]; 30 mg 10B/kg, 1 h) was 7.25 µg 10B/g. For the same substance, the “10B concentration, Spleen” value ([2]; 30 mg 10B/kg, 1 h) was 3.77 µg 10B/g, the “10B concentration, Tumor” value ([2]; 30 mg 10B/kg, 1 h) was 6.65 µg 10B/g and 6.65 ± 0.25 µg 10B/g and the “T/Bl (tumor to blood ratio)” value ([2]; 30 mg 10B/kg, 1 h) was 0.49. The “T/Br (tumor to normal contralateral brain ratio)” value ([2]; 30 mg 10B/kg, 1 h) was 15.27, the “10B concentration in blood” value ([2]; 30 mg 10B/kg, 3 h) was 2.35 ± 1.37 µg/mL and the “10B concentration, Blood” value ([2]; 30 mg 10B/kg, 3 h) was 2.35 µg 10B/g. The “10B concentration, Contralateral brain” value ([2]; 30 mg 10B/kg, 3 h) was 0.14 µg 10B/g, the “10B concentration, Heart” value ([2]; 30 mg 10B/kg, 3 h) was 0.56 µg 10B/g and the “10B concentration, Ipsilateral brain” value ([2]; 30 mg 10B/kg, 3 h) was 0.35 µg 10B/g. For the same substance, the “10B concentration, Liver” value ([2]; 30 mg 10B/kg, 3 h) was 4.19 ± 1.79 µg 10B/g and 4.19 µg 10B/g, the “10B concentration, Lung” value ([2]; 30 mg 10B/kg, 3 h) was 2.26 µg 10B/g and the “10B concentration, Muscle” value ([2]; 30 mg 10B/kg, 3 h) was 0.32 µg 10B/g. For the same substance, the “10B concentration, Skin” value ([2]; 30 mg 10B/kg, 3 h) was 1.06 µg 10B/g, the “10B concentration, Spleen” value ([2]; 30 mg 10B/kg, 3 h) was 5.68 µg 10B/g and the “10B concentration, Tumor” value ([2]; 30 mg 10B/kg, 3 h) was 2.91 µg 10B/g. The “T/Bl (tumor to blood ratio)” value ([2]; 30 mg 10B/kg, 3 h) was 1.58, the “T/Br (tumor to normal contralateral brain ratio)” value ([2]; 30 mg 10B/kg, 3 h) was 23.09 and the “clearance from normal tissues” value ([2]; 1 vs 3 h) was “rapid clearance from normal tissues”. For the same substance, the “10B Concentrations, Brain (Table 1)” value ([2]; 1 h, used for dose estimation) was 0.3 μg 10B/g and the “10B Concentrations, Tumor (Table 1)” value ([2]; 1 h, used for dose estimation) was 1.4 μg 10B/g.
